The values that follow come from patent US20090117192A1, “COMPOSITION FOR TRANSDERMAL ABSORPTION AND FORMULATION COMPRISING A POLYMERIC MATRIX FORMED THEREFROM” (priority 2007, published 2009).

This series in a line: Meloxicam solubility enhancement test of sodium methoxide (saturation, HPLC). The procedure: Meloxicam was mixed with an equivalent amount of sodium methoxide, and the mixture was dissolved to the saturation point in distilled water, methanol, ethylacetate, tetrahydrofuran or N-methylpyrrolidone. The resulting solution was subjected to high performance liquid chromatography to measure the meloxicam solubility.
Only Meloxicam without using sodium methoxide was dissolved to the saturation point in distilled water, methanol, ethylacetate, tetrahydrofuran or N-methylpyrrolidone, and then the resulting solution was subjected to high performance liquid chromatography to measure the meloxica solubility.

The structures appear in SMILES notation. Like-named read-outs stand apart in the source and are kept apart here.

For `Cc1cnc(NC(=O)C2=C(O)c3ccccc3S(=O)(=O)N2C)s1` [Comparative Example 1, Meloxicam], the Meloxicam solubility is 60 µg/mL.
In the case of `Cc1cnc(NC(=O)C2=C(O)c3ccccc3S(=O)(=O)N2C)s1` [Comparative Example 2, Meloxicam], the Meloxicam solubility is 430 µg/mL.
Turning to `Cc1cnc(NC(=O)C2=C(O)c3ccccc3S(=O)(=O)N2C)s1` [Comparative Example 3, Meloxicam], the Meloxicam solubility (saturation, HPLC) was found to be 1280 µg/mL.
Consider `Cc1cnc(NC(=O)C2=C(O)c3ccccc3S(=O)(=O)N2C)s1` [Comparative Example 4, Meloxicam], for which the Meloxicam solubility is 21910 µg/mL.
For `Cc1cnc(NC(=O)C2=C(O)c3ccccc3S(=O)(=O)N2C)s1` [Comparative Example 5, Meloxicam], the Meloxicam solubility amounted to 92700 µg/mL.
